Our source for the IC50 values is publication PMC5085761 (International Journal of Molecular Sciences, 2016).

For this test, the target named is T1, human MRP4 (Homo sapiens, UniProt O15439).
T1 construct: purchased GenoMembrane Co., Ltd. (Kanagawa, Japan); host or cells: Sf9
T1 sequence (O15439 1-1325): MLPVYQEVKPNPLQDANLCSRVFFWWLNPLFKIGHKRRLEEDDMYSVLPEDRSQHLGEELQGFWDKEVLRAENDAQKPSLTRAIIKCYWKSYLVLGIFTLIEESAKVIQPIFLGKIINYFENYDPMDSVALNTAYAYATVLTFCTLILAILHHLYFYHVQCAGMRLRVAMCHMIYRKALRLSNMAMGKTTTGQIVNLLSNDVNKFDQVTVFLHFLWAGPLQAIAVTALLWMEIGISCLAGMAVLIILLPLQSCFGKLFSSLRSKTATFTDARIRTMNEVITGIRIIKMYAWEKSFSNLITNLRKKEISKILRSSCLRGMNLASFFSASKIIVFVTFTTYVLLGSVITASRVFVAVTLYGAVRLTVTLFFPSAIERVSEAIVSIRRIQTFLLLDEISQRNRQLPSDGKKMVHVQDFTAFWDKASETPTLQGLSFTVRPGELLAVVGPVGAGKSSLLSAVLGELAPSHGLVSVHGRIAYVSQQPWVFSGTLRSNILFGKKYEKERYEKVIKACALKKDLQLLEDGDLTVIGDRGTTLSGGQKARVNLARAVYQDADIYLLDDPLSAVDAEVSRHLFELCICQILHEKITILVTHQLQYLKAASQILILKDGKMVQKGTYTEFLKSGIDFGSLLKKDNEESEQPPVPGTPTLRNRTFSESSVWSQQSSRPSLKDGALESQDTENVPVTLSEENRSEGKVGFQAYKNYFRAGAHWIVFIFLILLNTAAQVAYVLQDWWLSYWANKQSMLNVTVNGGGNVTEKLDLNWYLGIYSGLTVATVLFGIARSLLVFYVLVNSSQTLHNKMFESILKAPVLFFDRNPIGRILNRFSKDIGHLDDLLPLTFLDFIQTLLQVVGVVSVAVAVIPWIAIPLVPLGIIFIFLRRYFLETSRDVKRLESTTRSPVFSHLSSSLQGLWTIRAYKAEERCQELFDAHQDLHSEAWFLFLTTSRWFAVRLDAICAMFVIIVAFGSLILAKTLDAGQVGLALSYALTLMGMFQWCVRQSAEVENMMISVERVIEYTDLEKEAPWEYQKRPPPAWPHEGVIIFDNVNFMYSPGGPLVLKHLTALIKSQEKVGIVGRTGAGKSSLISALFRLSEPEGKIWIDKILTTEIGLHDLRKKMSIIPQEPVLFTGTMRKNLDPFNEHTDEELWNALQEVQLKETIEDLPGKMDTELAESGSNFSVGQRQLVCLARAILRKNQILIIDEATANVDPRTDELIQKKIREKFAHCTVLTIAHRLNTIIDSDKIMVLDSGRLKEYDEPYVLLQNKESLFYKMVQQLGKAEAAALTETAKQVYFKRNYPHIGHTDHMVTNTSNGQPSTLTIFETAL
As to the kind of experiment: Inhibition of tracer uptake in MRP4-expressing vesicles. Particulars: MRP4, tracer [3H]E2G 10 µM. Format: in vitro ADME. The protocol:
For ABC transporters, experimental kits containing Sf9-derived vesicles with high expression levels of human P-gp, MRP4, BCRP, and each ABC transporter (including buffer, ATP/AMP solution, and glutathione) were purchased from GenoMembrane Co., Ltd. (Kanagawa, Japan).
Vesicular transport assays were carried out according to the manufacturer’s protocol. […] The reaction was started by suspending 50 μg of vesicles (10 μL) in 40 μL of the reaction buffer. After incubation for an appropriate period of time, the reaction was stopped by the addition of ice-cold stop buffer (40 mM MOPS-Tris and 70 mM KCl; pH 7.0), after which the solution was filtered through a 0.45 μm HA filter (Millipore Corp., Billerica, MA, USA) using suction, and was washed twice in 5 mL of ice-cold stop buffer. The radioactivity of the filter was measured with a Tri-Carb 2910TR liquid scintillation counter (PerkinElmer) using Ultima Gold (PerkinElmer). The amount of tracer uptake was normalized to the membrane protein amount described in the product information sheets.

For the compound `N[C@]1(C(=O)O)C[C@@H](F)C1` [fluciclovine], the IC50 (as a rule, the concentration needed to halve the response being measured) is 9.28 ± 1.9 mM.
